Values of other authors as cited in patent US9717692B2, “Effervescent formulations comprising dexketoprofen” (priority 2011, dated 2017).

Conditions: Sunshine et al., WO89/046558

C[C@H](C(=O)O)c1cccc(C(=O)c2ccccc2)c1 [Dexketoprofen, (+)-(S)-2-(3-Benzoylphenyl) propionic acid]
effect compared with racemic ketoprofen of the same amount: quicker and stronger effect
